1 compound from ChEMBL document CHEMBL5674886, “GLUT4 expression and glucose transport in human induced pluripotent stem cell-derived cardiomyocytes” (PLoS One, 2019) can be followed below.

Holding throughout (format): cell-based
For assay [1], the target named is T1, Solute carrier family 2, facilitated glucose transporter member 1 (Mus musculus) (UniProt P17809).
T1 sequence (whole entry): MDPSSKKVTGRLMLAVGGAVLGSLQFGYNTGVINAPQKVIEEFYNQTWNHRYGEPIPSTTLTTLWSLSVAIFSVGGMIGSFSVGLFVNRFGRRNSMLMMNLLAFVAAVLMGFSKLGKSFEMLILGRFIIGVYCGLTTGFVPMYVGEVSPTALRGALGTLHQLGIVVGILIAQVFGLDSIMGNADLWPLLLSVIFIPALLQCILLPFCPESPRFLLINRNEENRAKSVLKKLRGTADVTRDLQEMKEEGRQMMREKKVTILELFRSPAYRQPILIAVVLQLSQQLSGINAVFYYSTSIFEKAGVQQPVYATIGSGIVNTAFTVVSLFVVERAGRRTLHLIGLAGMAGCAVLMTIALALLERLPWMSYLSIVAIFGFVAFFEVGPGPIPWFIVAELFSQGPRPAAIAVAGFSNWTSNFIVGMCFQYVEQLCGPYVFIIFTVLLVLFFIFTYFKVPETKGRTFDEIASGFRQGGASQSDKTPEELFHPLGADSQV
Nature of the assay: Inhibition of GLUT1 in mouse 3T3-L1 cells assessed as reduction in insulin-stimulated [3H]-2-deoxyglucose uptake at 20 nM incubated for 30 mins by [3H]-2-deoxyglucose uptake assay.

The target in assay [2] is T1, Solute carrier family 2, facilitated glucose transporter member 1 (Mus musculus). Nature of the assay: Inhibition of GLUT1 in mouse 3T3-L1 cells assessed as reduction in insulin-stimulated [3H]-2-deoxyglucose uptake at 2 uM incubated for 30 mins by [3H]-2-deoxyglucose uptake assay.
The target of assay [3] is T2, Solute carrier family 2, facilitated glucose transporter member 4 (Homo sapiens, UniProt P14672).
T2 sequence (P14672 whole entry): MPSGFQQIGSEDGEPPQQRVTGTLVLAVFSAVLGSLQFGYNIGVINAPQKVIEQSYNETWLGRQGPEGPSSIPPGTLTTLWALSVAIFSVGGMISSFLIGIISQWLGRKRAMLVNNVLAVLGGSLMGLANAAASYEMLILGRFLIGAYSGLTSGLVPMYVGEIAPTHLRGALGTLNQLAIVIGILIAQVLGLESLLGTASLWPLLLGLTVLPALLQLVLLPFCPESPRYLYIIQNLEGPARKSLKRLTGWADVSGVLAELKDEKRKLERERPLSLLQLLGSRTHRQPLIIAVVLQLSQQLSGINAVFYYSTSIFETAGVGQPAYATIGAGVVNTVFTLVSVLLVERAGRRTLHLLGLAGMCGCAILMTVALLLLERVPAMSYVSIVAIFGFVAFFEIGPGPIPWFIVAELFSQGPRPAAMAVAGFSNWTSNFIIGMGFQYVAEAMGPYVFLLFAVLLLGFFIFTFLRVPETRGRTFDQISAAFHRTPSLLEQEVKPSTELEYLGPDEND
Nature of the assay: Inhibition of human GLUT4 expressed in CHO cells measured after 15 mins by cell-titer-Glo luminescent cell viability assay.

For orientation: inhibition means the share of the control response that was lost under treatment. One may read the IC50 as the concentration at which inhibition is half-maximal. A low value points to higher potency. For the compound `Cc1c(NC(=O)c2cc(C(N)=O)nc3cc(F)ccc23)c(C(F)(F)F)nn1Cc1ccc(C#N)cc1` [BAY-876], the inhibition amounted to 25% in assay [1] and 100% in assay [2]. The same compound gave a half-maximal inhibitory concentration (IC50) in assay [3] of 200 nM.
